Measurements reported in patent US20240415834A1, “LURBINECTEDIN AND ATEZOLIZUMAB COMBINATIONS” (priority 2021, published 2024).
Like-named read-outs stand apart in the source and are kept apart here.

Legend:
A-549 = test: MTT short-term viability assay, 72 hours exposure; assay type: cell-based; conditions: Homo sapiens, A549, Lung, read-out: IG50 (the source's name)
Protocol: (§1) The antineoplastic in vitro activity of lurbinectedin was evaluated in a panel of solid tumour cell lines (some of which are shown in Table 1), which were exposed to a range of lurbinectedin concentrations for 72 hours and then assayed for viability by a MTT short-term assay.

A2780 = test: MTT short-term viability assay, 72 hours exposure; assay type: cell-based; conditions: Homo sapiens, Ovarian, read-out: IG50 (the source's name)
Protocol: as §1

BT-474 = test: MTT short-term viability assay, 72 hours exposure; assay type: cell-based; conditions: Homo sapiens, Breast, read-out: IG50 (the source's name)
Protocol: as §1

HCT 116 = test: MTT short-term viability assay, 72 hours exposure; assay type: cell-based; conditions: Homo sapiens, Colon, read-out: IG50 (the source's name)
Protocol: as §1

HT-29 = test: MTT short-term viability assay, 72 hours exposure; assay type: cell-based; conditions: Homo sapiens, Colon, read-out: IG50 (the source's name)
Protocol: as §1

IGROV-1 = test: MTT short-term viability assay, 72 hours exposure; assay type: cell-based; conditions: Homo sapiens, Ovarian, read-out: IG50 (the source's name)
Protocol: as §1

LoVo = test: MTT short-term viability assay, 72 hours exposure; assay type: cell-based; conditions: Homo sapiens, Colon, read-out: IG50 (the source's name)
Protocol: as §1

MCF-7 = test: MTT short-term viability assay, 72 hours exposure; assay type: cell-based; conditions: Homo sapiens, MCF7, Breast, read-out: IG50 (the source's name)
Protocol: as §1

MDA-MB-231 = test: MTT short-term viability assay, 72 hours exposure; assay type: cell-based; conditions: Homo sapiens, Breast, read-out: IG50 (the source's name)
Protocol: as §1

MiaPaca-2 = test: MTT short-term viability assay, 72 hours exposure; assay type: cell-based; conditions: Homo sapiens, MIA PaCa-2, Pancreas, read-out: IG50 (the source's name)
Protocol: as §1

NCl-H23 = test: MTT short-term viability assay, 72 hours exposure; assay type: cell-based; conditions: Lung, read-out: IG50 (the source's name)
Protocol: as §1

NCl-H460 = test: MTT short-term viability assay, 72 hours exposure; assay type: cell-based; conditions: Lung, read-out: IG50 (the source's name)
Protocol: as §1

PANC-1 = test: MTT short-term viability assay, 72 hours exposure; assay type: cell-based; conditions: Homo sapiens, Pancreas, read-out: IG50 (the source's name)
Protocol: as §1

[1] = tested on: broad selection of tumour-derived cell lines; test: In vitro cytotoxic effects against tumour-derived cell lines; assay type: cell-based; conditions: read-out: median IC50
LXFL 529 lung xenograft = test: In vivo antitumour activity in xenografts; parameters: species or system athymic mice; conditions: Lung LXFL 529; Q7d × 3; 0.18 mg/kg/day (0.54 mg/m^2/day); optimal day D-28
[2] = tested on: UM-UC-3 bladder xenograft; test: In vivo antitumour activity in xenografts; parameters: species or system athymic mice; conditions: Bladder UM-UC-3; Qd × 5 × 2; 0.06 mg/kg/day (0.18 mg/m^2/day); optimal day D-23
[3] = tested on: MDA-MB-231 breast xenograft; test: In vivo antitumour activity in xenografts; parameters: species or system athymic mice; conditions: Breast MDA-MB-231; Q7d × 3; 0.18 mg/kg/day (0.54 mg/m^2/day); optimal day D-34
MX-1 breast xenograft = test: In vivo antitumour activity in xenografts; parameters: species or system athymic mice; conditions: Breast MX-1; Q7d × 3; 0.18 mg/kg/day (0.54 mg/m^2/day); optimal day D-21
A2780 ovary xenograft = test: In vivo antitumour activity in xenografts; parameters: species or system athymic mice; conditions: Q7d × 3, 0.18 mg/kg/day (0.54 mg/m^2/day), optimal day D-17
[4] = tested on: Capan-1 pancreas xenograft; test: In vivo antitumour activity in xenografts; parameters: species or system athymic mice; conditions: Pancreas Capan-1; Q7d × 3; 0.18 mg/kg/day (0.54 mg/m^2/day); optimal day D-61
PC-3 prostate xenograft = test: In vivo antitumour activity in xenografts; parameters: species or system athymic mice; conditions: Prostate PC-3; Q7d × 3; 0.18 mg/kg/day (0.54 mg/m^2/day); optimal day D-27
[5] = tested on: human-derived tumour xenografts; test: Tumour susceptibility in xenografts of human-derived tumour types; assay type: in vivo, athymic mice; conditions: single bolus i.v. at rodent MTD 0.3 mg/kg
[6] = Cardiovascular parameters (ABP, HR, lead II ECG) after single bolus injection in dogs; assay type: in vivo; conditions: six hours, doses up to 0.01 mg/kg (0.2 mg/m^2)
[7] = Toxicity studies: HR and ECGs of dogs after single or repeated administration; assay type: in vivo; conditions: doses up to 0.05 mg/kg (1 mg/m^2)
[8] = tested on: patients with advanced and refractory solid tumours; parameters: species or system human; conditions: in vivo
Protocol: The completed PM1183-A-001-08 phase I trial evaluated i.v. lurbinectedin in human patients for the first time, when infused over one hour (h) every three weeks (q3 wk) in 31 patients with advanced and refractory solid tumours. Among these, 15 (48.4%) patients were treated at the defined recommended dose (RD). The RD for phase II studies was defined at a PM01183 dose of 4.0 mg/m^2 q3 wk-equivalent to a 7.0 mg flat dose (FD) q3 wk. […] No signs of cumulative toxicity were observed.

[9] = Pooled logistic regression analysis of phase II data, review of recommended dose; assay type: in vivo, human; conditions: q3 wk, BSA-based dosing, to limit severe myelosuppression
Protocol: Owing to these findings, all actively recruiting and planned studies now use BSA-based dosing to limit severe myelosuppression. The original RD of 4.0 mg/m^2 q3 wk has been reviewed and reduced to 3.2 mg/m^2 q3 wk for the same reason.

CYP isoforms = test: In vitro metabolism studies with human microsomes; assay type: in vitro ADME; conditions: followed by CYP2E1, CYP2D6 and CYP2C9
From the text: The estimated contribution of the other CYP isoenzymes to the PM01183 metabolism is considered to be negligible. Therefore, concomitant drugs which induce or inhibit any of these cytochromes, especially CYP3A4, should be carefully monitored or avoided, whenever is possible.

[10] = PM1183-A-008-13 phase I study, interaction with aprepitant; assay type: in vivo, human; conditions: in the presence of aprepitant (CYP3A4 inhibitor), patients
From the text: PM01183 clearance was reduced by 50%, approximately, in the presence of aprepitant. Although all patients eventually recovered, the use of aprepitant is currently forbidden in all PM01183 studies.

[11] = rat, in vivo
[12] = dog, in vivo
[13] = tested on: patients with metastatic SCLC; conditions: cited from earlier work
in vivo = conditions: rodent, iv
patients with ES-SCLC = conditions: IMpower133; cited from earlier work

## COc1ccc2[nH]c3c(c2c1)CCN[C@]31CS[C@@H]2c3c(OC(C)=O)c(C)c4c(c3[C@H](COC1=O)N1[C@@H]2[C@H]2c3c(cc(C)c(OC)c3O)C[C@@H]([C@@H]1O)N2C)OCO4 [PM01183, lurbinectedin]
A-549
  IC50: 1.3 nM
A2780
  IC50: 1.6 nM
BT-474
  IC50: 1.3 nM
HCT 116
  IC50: 65 nM
HT-29
  IC50: 2.4 nM
IGROV-1
  IC50: 9.8 nM
LoVo
  IC50: 2 nM
MCF-7
  IC50: 1.7 nM
MDA-MB-231
  IC50: 3.5 nM
MiaPaca-2
  IC50: 1.1 nM
NCl-H23
  IC50: 0.54 nM
NCl-H460
  IC50: 1.6 nM
PANC-1
  IC50: 2.9 nM
[1]
  IC50: ~0.1 nM
LXFL 529 lung xenograft
  T/C %: 5%
[2]
  T/C %: 58%
[3]
  T/C %: 40%
MX-1 breast xenograft
  T/C %: 0%
A2780 ovary xenograft
  T/C %: 34%
[4]
  T/C %: 61%
PC-3 prostate xenograft
  T/C %: 65%
[5]
  antitumour activity against bladder, pancreas and prostate xenografts: more moderate antitumour profile
[5]; different time points
  antitumour activity against breast, lung and ovarian xenografts: statistically significant antitumour activity (p<0.05)
[6]
  effects on heart, ABP, lead II ECG variables (PR, QT, QTcF, QTcV, QRS), ECG gross morphology or rhythm: no effects
[7]
  electrophysiological alterations in HR and ECGs: no electrophysiological alterations
[8]; human
  dose-limiting toxicity (DLT) at the RD: grade 4 thrombocytopenia
  inter-patient variability in the area under the curve [AUC]: > 50.0%
  recommended dose, equivalent flat dose (FD): 7.0 mg
[8]; human, iv
  recommended dose (RD) for phase II studies: 4.0 mg/m^2
[8]
  PK dose linearity: linearity across all explored doses
  tolerability at the RD: generally well tolerated
[9]
  recommended dose, reviewed and reduced: 3.2 mg/m^2
CYP isoforms
  major CYP isoform involved in the metabolism: CYP3A4
[10]
  clearance reduction: ~50%
[11]
  main target organs of toxicity: bone marrow and the liver
[12]
  main target organs of toxicity: bone marrow and the liver
[13]; independent review committee, 95% CI 4.9, 6.4
  median response duration: 5.1 months
[13]; independent review committee, 95% CI 22%, 40%
  ORR: 30%
[13]; investigator assessment RECIST 1.1, 105 patients, 3.2 mg/m^2 i.v. every 21 days, 95% CI 26%, 45%
  ORR: 35%
[13]; investigator assessment, 95% CI 4.1, 6.4
  median response duration: 5.3 months
In vivo
  MTD: 0.3 mg/kg

## atezolizumab: humanized IgG1 monoclonal antibody that targets human PD-L1
Patients with ES-SCLC
  most common adverse reaction reported in ≥20% of patients: fatigue/asthenia, nausea, alopecia, constipation and decreased appetite
